For this data set the following is noted: in water.

With `CCC(N)=O`, the solubility (mole fraction) – broadly, the moles of solute divided by all moles in the saturated solution – (278.15 K) was 0.134; the solubility (mole fraction) (283.15 K) was 0.163; the solubility (mole fraction) (288.15 K) was 0.195; the solubility (mole fraction) (293.15 K) is 0.232; the solubility (mole fraction) (298.15 K) turned out to be 0.276; the solubility (mole fraction) (303.15 K) amounted to 0.315. Besides, the solubility (mole fraction) came to 0.371 (308.15 K); 0.4 (313.15 K); 0.45 (318.15 K); 0.486 (323.15 K); 0.527 (328.15 K); 0.568 (333.15 K).
In the case of `CCCC(N)=O`, the solubility (mole fraction) runs as follows: (278.15 K) 0.0163; (283.15 K) 0.021; (288.15 K) 0.026; (293.15 K) 0.0331; (298.15 K) 0.0442; (303.15 K) 0.0575. The solubility (mole fraction) is 0.0724 (308.15 K); 0.0895 (313.15 K); 0.109 (318.15 K); 0.131 (323.15 K); 0.152 (328.15 K); 0.175 (333.15 K).

Source of the values: BigSolDB 2.1.
